Source: patent US20250263444A1, “vIRF3-Derived Peptide and Use Thereof for Preventing or Treating Cancer” (priority 2022, published 2025)

Columns and labels:
ATP-citrate lyase (ACLY) = experiment: Immunoblotting with anti-acetyl-lysine antibody of LEC stable cell lines treated with ACLY inhibitor; type: cell-based; details: LEC lines pCDH, V5-vIRF3, V5-vIRF3(Δ250-280) treated with BMS303141
Protocol: Acetyl-CoA is a crucial metabolite that provides acetyl groups for acetylation reaction of proteins including histone. To better understand the importance of acetyl-CoA upregulation by vIRF3 in LEC, first, it was confirmed whether vIRF3 may increase the overall acetylation level in LEC. To this end, cell lysates were analyzed by immunoblotting (IB) using an anti-acetyl-lysine antibody. […] Especially, cytosolic acetyl-CoA, which was involved in lysine acetylation of protein, regulating the activity, stability, or localization of many cell proteins is primarily generated by the translocation of citrate from the mitochondria to the cytoplasm via ATP-citrate lyase (ACLY). Therefore, three LEC stable cell lines encoding expression vectors of pCDH, V5-vIRF3, and V5-vIRF3(Δ250-280) were treated with an ACLY inhibitor BMS303141 and then analyzed by IB with an anti-acetyl-lysine antibody.

tetrameric form of PKM2 = target: T1, tetrameric form of PKM2 (Homo sapiens, UniProt P14618); experiment: PKM2 cross-linking and gradient SDS-PAGE immunoblotting; type: cell-based; details: LECs expressing vIRF3; FIG. 8B
T1 construct: endogenous in cells; host or cells: E6/E7-immortalised LECs stably expressing V5-vIRF3 by lentivirus (PKM2 endogenous, vIRF3 transduced)
Protocol: 293T cells were infected with indicated combination of plasmids and harvested 48 hours after infection. The cells were lysed with a NP40 lysis buffer supplemented with a protease inhibitor (150 mM NaCl, 0.5% NP40, 50 mM pH 8.0 Tris-HCl) and treated with 0.1% glutaraldehyde for 4 minutes at room temperature. Thereafter, gradient SDS-PAGE was performed with NuPAGE 4-12% Bis-Tris gel (Invitrogen) and analyzed by immunoblotting.

[1] = system: recombinant KSHV-infected LECs; experiment: Xenograft model, subcutaneous peptide administration; type: in vivo, mice
PKM2 [2] = target: T2, PKM2 (Homo sapiens, UniProt P14618); experiment: Binding of vIRF3-derived peptide fragments to PKM2 (GST-pull down / immunoprecipitation, FIG. 7); parameters: expressed in transfected cells
Text: A pCMV-HA-hPKM2 plasmid was provided by from the Miyagi Cancer Center Research Institute, Natori, Japan. In addition, a vIRF3 (Δ250-280) mutant was generated by sequentially deleting 10 amino acids from alanine 250 using a QuikChange XL site-directed mutagenesis kit (Agilent). Primer pairs used in vIRF3 deletion mutation were as follows: vIRF3(Δ250-260) forward 5′-[…]-3′ (SEQ ID NO: 8), vIRF3(Δ250-260) reverse 5′-[…]-3′ (SEQ ID NO: 9), vIRF3(Δ260-270) forward 5′-[…]-3′ (SEQ ID NO: 10), vIRF3(Δ260-270) reverse 5′-[…]-3′ (SEQ ID NO: 11), vIRF3(Δ270-280) forward 5′-[…]-3′ (SEQ ID NO: 12), and vIRF3(Δ270-280) reverse 5′-[…]-3′ (SEQ ID NO: 13). GST-tagged vIRF3 250-260, 260-270, and 270-280 were subcloned into a pEBG-GST vector with BamHI and NotI restriction sites using the following primers: vIRF3(250-260) forward 5′-[…] GGC-3′ (SEQ ID NO: 14), vIRF3(250-260) reverse 5′-[…] CG-3′ (SEQ ID NO: 15), vIRF3(260-270) forward 5′-GATCCGCCACCAT […]-3′ (SEQ ID NO: 16), vIRF3(260-270) reverse 5′-[…] G-3′ (SEQ ID NO: 17), vIRF3(270-280) forward 5′-[…] GC-3′ (SEQ ID NO: 18), and vIRF3 270-280 reverse 5′-[…] GGCG-3′ (SEQ ID NO: 19).
The indicated cells were infected regardless of the presence or absence of combination of plasmids. […] Cell lysates were immunoprecipitated against indicated proteins and analyzed by immunoblotting according to methods known in the art.

PKM2 [3] = target: T2, PKM2; experiment: Pyruvate kinase activity assay in LECs treated with TAT or TAT-VDP; type: cell-based; parameters: endogenous in cells; host or cells: E6/E7-immortalised LECs (LEC-V5-vIRF3 or LEC-vector); details: LEC-V5-vIRF3 cells; VDP fused to HIV-1 TAT; FIG. 8C
Protocol: Pyruvate kinase activity assay was performed with a Pyruvate Kinase Assay Kit (Sigma Aldrich) according to manufacturer's instructions. Briefly, LECs expressing a pCDH vector, vIRF3, and vIRF3(Δ250-280), respectively were harvested and washed twice with 1×PBS. The cells were suspended in 50 μl of a pyruvate kinase assay buffer and incubated for 15 minutes. Cell debris was removed by centrifugation at 13,000 rpm for 15 minutes. The supernatant was transferred to a 96-well plate and added with a kinase assay mixture. Absorbance was measured at 570 nm wavelength using a Varioskan Lux microplate reader (Thermo scientific).

LEC-V5-vIRF3 = experiment: Chorioallantoic membrane (CAM) invasion assay; type: in vivo, chick; details: 0.2 mg peptide at 24 and 48 hours after cell seeding; IHC; FIG. 8D
Protocol: The chick fertilized eggs were incubated at 37.5° C. with 70% humidified atmosphere in a Rcom D-50 incubator (Autoelex). After embryonic day (ED) 5, a 1.5 cm square hole was opened on the eggshell and sealed with a sterile parafilm tape. Embryos were monitored by daily candling. On ED 10, sterile silicone rings were placed onto the CAM of the embryo and added with indicated cells, and then the cells were seeded. 0.2 mg of TAT (a control peptide containing only a TAT sequence of HIV-1 (synthesized by Bionics)) or TAT-VDP according to the present invention (vRIF3-derived aa250-260 peptide bound with a TAT sequence (synthesized by Bionics)) was treated at 24 and 48 hours after cell seeding. Approximately 1 cm^2 of CAM around the silicone ring was harvested and fixed with 4% paraformaldehyde at 4° C. for 24 hours. Thereafter, samples were treated for immunohistochemistry and Hematoxyling and Eosin (H&E) staining.

T2 sequence (P14618 whole entry, the tested form may be a part): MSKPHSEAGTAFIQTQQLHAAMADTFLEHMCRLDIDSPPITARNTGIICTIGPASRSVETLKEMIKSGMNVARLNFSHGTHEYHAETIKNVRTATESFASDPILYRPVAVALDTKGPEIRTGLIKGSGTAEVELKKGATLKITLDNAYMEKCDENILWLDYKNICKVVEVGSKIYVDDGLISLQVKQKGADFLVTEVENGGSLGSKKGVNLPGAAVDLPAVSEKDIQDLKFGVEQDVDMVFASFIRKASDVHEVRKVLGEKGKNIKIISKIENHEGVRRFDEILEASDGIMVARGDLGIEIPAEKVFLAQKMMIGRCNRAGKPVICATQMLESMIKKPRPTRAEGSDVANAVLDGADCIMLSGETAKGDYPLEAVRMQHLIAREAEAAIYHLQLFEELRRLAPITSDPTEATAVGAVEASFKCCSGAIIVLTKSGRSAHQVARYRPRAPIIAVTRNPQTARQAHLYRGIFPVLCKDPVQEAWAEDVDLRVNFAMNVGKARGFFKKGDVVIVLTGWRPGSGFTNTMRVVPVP
T1 sequence (P14618 2-531 limits assumed): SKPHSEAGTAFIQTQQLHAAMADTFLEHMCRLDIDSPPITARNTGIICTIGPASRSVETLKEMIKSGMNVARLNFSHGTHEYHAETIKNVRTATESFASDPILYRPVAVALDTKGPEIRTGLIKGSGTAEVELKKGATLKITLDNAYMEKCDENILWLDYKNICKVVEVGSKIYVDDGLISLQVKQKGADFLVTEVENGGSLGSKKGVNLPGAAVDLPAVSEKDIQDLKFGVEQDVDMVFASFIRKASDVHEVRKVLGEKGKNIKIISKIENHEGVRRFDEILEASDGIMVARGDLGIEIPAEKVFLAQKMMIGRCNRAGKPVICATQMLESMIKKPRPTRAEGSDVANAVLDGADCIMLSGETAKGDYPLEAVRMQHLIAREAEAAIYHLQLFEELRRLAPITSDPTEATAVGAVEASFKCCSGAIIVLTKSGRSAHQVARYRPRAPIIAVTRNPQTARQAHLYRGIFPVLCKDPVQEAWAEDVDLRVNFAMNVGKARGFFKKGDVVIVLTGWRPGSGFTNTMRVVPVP

## COc1ccc(-c2ccccc2)cc1NS(=O)(=O)c1cc(Cl)cc(Cl)c1O [BMS303141]
ATP-citrate lyase (ACLY)
  increase of total acetylation levels by vIRF3: the increase of total acetylation levels was not confirmed

## TAT-VDP: vRIF3-derived aa250-260 peptide bound with a TAT sequence of HIV-1 for intracellular delivery (synthesized by Bionics) (RRRQRRKKRGYGEQGVHYMLACA)
Tetrameric form of PKM2
  vIRF3-mediated tetrameric form of PKM2: sufficiently prevented
[1]; 0.2 mg peptide twice per week for 30 days, subcutaneous, FIG. 8E
  tumor formation: remarkably inhibited

## vIRF3(260-270): fragment peptide of amino acids 260-270 of KSHV vIRF3 (SEQ ID NO: 4) (EMDMLMRAMCD)
PKM2 [2]
  binding to PKM2: mutual-bound to PKM2

## vIRF3(270-280): fragment peptide of amino acids 270-280 of KSHV vIRF3 (SEQ ID NO: 5) (DEDLFDLLGIP)
PKM2 [2]
  binding to PKM2: mutual-bound to PKM2

## vIRF3-derived peptide: vIRF3-derived peptide of SEQ ID NO: 1, included within aa 250-280 of KSHV vIRF3 (ACALMYHVGQEMDMLMRAMCDEDLFDLLGIP)
PKM2 [3]
  PK activity upregulated by vIRF3 expression: significantly inhibited
LEC-V5-vIRF3
  invasion of LEC-V5-vIRF3 in CAM (invasive activity): significantly inhibited
[1]; subcutaneous injection, animal model transplanted with LECs infected with KSHV
  size and volume of tumor: significantly reduced
